Experimental data reported in US5804576A, “Derivatives of 5-androsten-17-ones and 5-androstan-17-ones” (Research Corporation Technologies, Inc., priority 1986, dated 1998).

Columns and labels:
[1] = molecular target: T1, purified bovine adrenal G6PDH (Bos taurus, UniProt F1MMK2); assay: Inhibition of purified bovine adrenal G6PDH; type: biochemical; conditions: for G6PDH Inhibition relative to DHEA: Table 3, DHEA = 1×; for inhibition at 10 µM / inhibition at 1 µM / inhibition at 0.1 µM: read-out: Percent Inhibition (G6PDH)
T1 construct: full-length, wild type, no tag
Description: The compounds listed below are screened as inhibitors of purified bovine adrenal G6PDH activity as one predictor of cancer preventive action. The assay for testing the inhibition of purified bovine adrenal G6PDH is according to the procedure by Oertel, G. W. and Rebelein, I. in Biochem. Biophys. Acta, 184, 459-460 (1969). The results are given below in Table I:
Both of the above tests, i.e., the inhibition of mammalian glucose-6-phosphate dehydrogenase (G6PDH) and the inhibition of tumor promoter (TPA) stimulation of ^3 H-thymidine incorporation in mouse epidermis are recognized as indicators of cancer prophylactic activity. The following Table compares the efficacy of representative compounds of the present invention in these two tests with that of DHEA: […]

[2] = system: TPA (Tumor Promoter) Stimulation of Mouse Epidermal DNA; assay: Inhibition of TPA stimulation of mouse epidermal DNA synthesis (3H-thymidine incorporation), oral; type: in vivo, mouse (ICR male); conditions: Table 3; DHEA = 1×; oral
Description: Synthesis rate by orally administered steroids.
The inhibition of tumor promoter stimulation of mouse epidermal DNA synthesis rate by steroids may also contribute to cancer preventive activity. The following assay is used:
ICR male mice (7-9 weeks old) were shaved on the back 1-2 days before use. Only mice showing no hair regrowth were used. Animals were orally intubated with a particular steroid suspended by homogenization in sesame oil or with sesame oil alone (controls). One hour later TPA (10 μg in 0.2 ml of acetone) or acetone vehicle was applied topically to the shaved skin. Twenty hours later, mice were injected i.p. with 60 μCi of ^3 H-thymidine 20 minutes before sacrifice. The animals were killed by cervical dislocation and the residual hair was removed with a depilatory agent. Epidermal scrapings were prepared according to the procedures of Hennings et al. (Cancer Res. 28, 53, 1968), homogenized in distilled water at 4° C., and the macromolecules precipitated with 0.4N trichloroacetic acid (TCA). Following 6 washes with absolute ethanol at room temperature, the nucleic acids were hydrolyzed with 0.5N TCA at 70° C. for 5 minutes. The hydrolysate (0.2 ml aliquots) were counted in an Intertechnique scintillation counter and assayed for DNA by the diphenylamine reaction.
The data are expressed as counts per minute (cpm) of tritium per μg of DNA.
A similar oral dose-response experiment with compound 16 and DHEA was performed.
Both of the above tests, i.e., the inhibition of mammalian glucose-6-phosphate dehydrogenase (G6PDH) and the inhibition of tumor promoter (TPA) stimulation of ^3 H-thymidine incorporation in mouse epidermis are recognized as indicators of cancer prophylactic activity. The following Table compares the efficacy of representative compounds of the present invention in these two tests with that of DHEA:
Male ICR mice were orally intubated with steroid suspended in sesame oil (0.5 ml/mouse) at the indicated dose. Mice not receiving steroid were given sesame oil alone. One hour later mice received topical application of TPA and 20 hours later the rate of ^3 H-thymidine incorporation into the epidermis was determined as described in Table 4.
Male ICR mice were orally intubated with steroid suspended in sesame oil (0.5 ml/mouse) at the indicated dose. Mice not receiving steroid were given sesame oil alone. One hour later mice received topical application of TPA, and 20 hours later the rate of ^3 H-thymidine incorporation into the epidermis was determined as described in Table 4.

[3] = Anti-obesity test (body weight, food consumption); type: in vivo, mouse (male A/J); conditions: Table 14; DHEA = 1×
Procedure: Male A/J mice (5 weeks old) were obtained from the Jackson Laboratory and were housed in polycarbonate cages (5 mice/cage) in animal quarters maintained at 24°±1° C. with 12 hours of light and 12 hours of darkness each day. One week after arrival, the mice were placed on a chow diet containing varying concentrations of DHEA or other steroid. Animals were weighed weekly; food consumption was determined weekly by subtracting the amount of food remaining in the cage from the amount added.
Male A/J (5 weeks old) were obtained from the Jackson Laboratory and were housed in polycarbonate cages (5 mice/cage) in animal quarters maintained at 24°±1° C. with 12 hours of light and 12 hours of darkness each day. One week after arrival, the mice were placed on a diet containing either DHEA, 19, or without steroid. Animals were weighed weekly. The concentration of DHEA or 19 used in the food was 0.54%.
Male A/J mice (5 weeks old) were obtained from the Jackson Laboratory and were housed in polycarbonate cages (5 mice/cage) in animal quarters maintained at 24°±1° C. with 12 hours of light and 12 hours of darkness each day. One week after arrival, the mice were placed on a show diet containing DHEA, 16, or 21 at 0.36%. Animals were weighed weekly.

[4] = system: C57BL/KsJ-db/db mice; assay: Anti-hyperglycemic activity (blood glucose); type: in vivo, mouse (C57BL/KsJ-db/db); conditions: Table 15; DHEA = 1×
Procedure: C57BL/KsJ-db/db 8 week old female mice were obtained and housed in polycarbonate cages in animal quarters maintained at 24° C. with 12 h of light and 12 h of darkness each day.
Mice were placed on a control chow or a chow diet containing either 0.4% DHEA or 0.2% of compound 16.
For determination of blood glucose levels, mice were bled from the orbital sinus using a heparinized capillary tube. 0.2 ml of blood was added to 1.8 ml of water to hemolyze the blood and glucose concentration was determined using the glucose oxidase assay.

T1 sequence (F1MMK2 31-70): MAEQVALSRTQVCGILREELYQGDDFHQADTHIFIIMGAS
T1 sequence (F1MMK2 101-575): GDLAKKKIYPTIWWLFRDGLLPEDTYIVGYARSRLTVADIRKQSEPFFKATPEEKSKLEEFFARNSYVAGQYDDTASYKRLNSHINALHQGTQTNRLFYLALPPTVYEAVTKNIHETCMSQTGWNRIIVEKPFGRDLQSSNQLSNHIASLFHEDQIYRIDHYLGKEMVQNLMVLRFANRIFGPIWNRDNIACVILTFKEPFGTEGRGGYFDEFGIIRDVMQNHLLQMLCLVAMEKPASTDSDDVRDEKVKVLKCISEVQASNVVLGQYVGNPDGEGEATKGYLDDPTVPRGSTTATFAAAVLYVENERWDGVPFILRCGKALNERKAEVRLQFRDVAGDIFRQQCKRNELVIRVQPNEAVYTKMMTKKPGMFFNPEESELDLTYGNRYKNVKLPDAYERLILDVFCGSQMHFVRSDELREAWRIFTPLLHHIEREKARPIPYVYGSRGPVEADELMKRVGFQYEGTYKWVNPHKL

## C[C@@H]1C[C@@]2(C)C(=CC[C@@H]3[C@@H]2CC[C@]2(C)C(=O)CC[C@@H]32)C[C@H]1O
[1]
  G6PDH Inhibition relative to DHEA: ~ 1 ×

## C[C@]12CC[C@H](O)C[C@@H]1CC[C@@H]1[C@@H]2CC[C@]2(C)C(=O)[C@H](Br)C[C@@H]12 [Compound 4]
[1]; Conc. 10 μm
  inhibition at 10 µM: 90%

## C[C@]12CC[C@H](O)CC1=CC[C@@H]1[C@@H]2CC[C@]2(C)C(=O)[C@H](Br)C[C@@H]12 [Compound 5]
[1]; Conc. 10 μm
  inhibition at 10 µM: 74%

## C[C@]12CC[C@H](O)C[C@@H]1CC[C@@H]1[C@@H]2CC[C@]2(C)C(=O)[C@H](Cl)C[C@@H]12 [Compound 6]
[1]; Conc. 10 μm
  inhibition at 10 µM: 72%

## C[C@]12CC[C@H](O)C[C@@H]1CC[C@@H]1[C@@H]2CC[C@]2(C)C(=O)[C@H](I)C[C@@H]12 [Compound 7]
[1]; Conc. 10 μm
  inhibition at 10 µM: 51%

## C[C@]12CC[C@H](O)C[C@@H]1CC[C@@H]1[C@@H]2CC[C@]2(C)C(=O)[C@H](F)C[C@@H]12 [Compound 8]
[1]; Conc. 10 μm
  inhibition at 10 µM: 66%

## C[C@]12CC[C@H](F)CC1=CC[C@@H]1[C@@H]2CC[C@]2(C)C(=O)CC[C@@H]12 [Compound 9]
[1]; Conc. 10 μm
  inhibition at 10 µM: 22%

## C[C@]12CC[C@@H](O)C[C@@H]1CC[C@@H]1[C@@H]2CC[C@]2(C)C(=O)CC[C@@H]12 [Compound 10]
[1]; Conc. 10 μm
  inhibition at 10 µM: 35%

## C[C@@H]1[C@H](O)CC[C@@]2(C)[C@H]1CC[C@@H]1[C@@H]2CC[C@]2(C)C(=O)CC[C@@H]12 [Compound 11]
[1]; Conc. 10 μm
  inhibition at 10 µM: 35%

## C[C@H]1C2=CC[C@@H]3[C@H](CC[C@]4(C)C(=O)CC[C@@H]34)[C@@]2(C)CC[C@@H]1O [Compound 11a]
[1]; Conc. 1 μm
  inhibition at 1 µM: 72%
[1]; Conc. 10 μm
  inhibition at 10 µM: 87%

## CC1(C)C2=CC[C@@H]3[C@H](CC[C@]4(C)C(=O)CC[C@@H]34)[C@@]2(C)CC[C@@H]1O [Compound 12]
[1]; Conc. 10 μm
  inhibition at 10 µM: 48%

## CC[C@H]1CC[C@@]2(C)C(=CC[C@@H]3[C@@H]2CC[C@]2(C)C(=O)CC[C@@H]32)C1 [Compound 13]
[1]; Conc. 0.1 μm
  inhibition at 0.1 µM: 58%
[1]; Conc. 1 μm
  inhibition at 1 µM: 55%
[1]; Conc. 10 μm
  inhibition at 10 µM: 73%

## C[C@]12CCCCC1=CC[C@@H]1[C@@H]2CC[C@]2(C)C(=O)CC[C@@H]12 [Compound 14]
[1]; Conc. 1 μm
  inhibition at 1 µM: 30%
[1]; Conc. 10 μm
  inhibition at 10 µM: 75%

## CCCC[C@H]1CC[C@@]2(C)C(=CC[C@@H]3[C@@H]2CC[C@]2(C)C(=O)CC[C@@H]32)C1 [Compound 17]
[1]; Conc. 0.1 μm
  inhibition at 0.1 µM: 49%
[1]; Conc. 1 μm
  inhibition at 1 µM: 45%
[1]; Conc. 10 μm
  inhibition at 10 µM: 60%

## CC1=C2C[C@@H](O)CC[C@]2(C)[C@H]2CC[C@]3(C)C(=O)CC[C@H]3[C@@H]2C1 [Compound 18]
[1]; Conc. 0.1 μm
  inhibition at 0.1 µM: 10%
[1]; Conc. 1 μm
  inhibition at 1 µM: 18%
[1]; Conc. 10 μm
  inhibition at 10 µM: 45%

## C[C@H]1CC[C@@]2(C)C(=CC[C@@H]3[C@@H]2CC[C@]2(C)C(=O)[C@](C)(F)C[C@@H]32)C1 [Compound 22]
[1]; Conc. 1 μm
  inhibition at 1 µM: 53%
[1]; Conc. 10 μm
  inhibition at 10 µM: 65%

## C[C@]12CC[C@H](O)C[C@@H]1CC[C@@H]1[C@@H]2CC[C@]2(C)C(=O)CC[C@@H]12 [drawing 85]
[2]
  Inhibition of TPA Effect on Epidermis Following Oral Administration, relative to DHEA: ~ 1 ×
[1]
  G6PDH Inhibition relative to DHEA: ~ 1.5 ×

## C[C@]12CCCC[C@@H]1CC[C@@H]1[C@@H]2CC[C@]2(C)C(=O)CC[C@@H]12 [drawing 86]
[2]
  Inhibition of TPA Effect on Epidermis Following Oral Administration, relative to DHEA: ~ 1.5 ×
[1]
  G6PDH Inhibition relative to DHEA: > 2 ×

## C[C@H]1CC[C@@]2(C)C(=CC[C@@H]3[C@@H]2CC[C@]2(C)C(=O)CC[C@@H]32)C1 [drawing 87]
[2]
  Inhibition of TPA Effect on Epidermis Following Oral Administration, relative to DHEA: ~ 3 ×
[1]
  G6PDH Inhibition relative to DHEA: ~ 1 ×

## C[C@H]1CC[C@@]2(C)C(=CC[C@@H]3[C@@H]2CC[C@]2(C)C(=O)[C@H](C)C[C@@H]32)C1 [drawing 88]
[1]
  G6PDH Inhibition relative to DHEA: ~ 0.5 ×

## C[C@H]1CC[C@@]2(C)C(=CC[C@@H]3[C@@H]2CC[C@]2(C)C(=O)[C@H](O)C[C@@H]32)C1 [drawing 89]
[2]
  Inhibition of TPA Effect on Epidermis Following Oral Administration, relative to DHEA: 5 ×
[1]
  G6PDH Inhibition relative to DHEA: ~ 2 ×

## C[C@]12CC[C@H](Cl)CC1=CC[C@@H]1[C@@H]2CC[C@]2(C)C(=O)CC[C@@H]12 [drawing 90]
[2]
  Inhibition of TPA Effect on Epidermis Following Oral Administration, relative to DHEA: 1-1.5 ×
[1]
  G6PDH Inhibition relative to DHEA: 0.5 ×

## CC[C@H]1CC[C@@]2(C)C(=CC[C@@H]3[C@@H]2CC[C@]2(C)C(=O)CC[C@@H]32)C1 [drawing 91]
[1]
  G6PDH Inhibition relative to DHEA: ~ 1.5 ×

## CCCC[C@H]1CC[C@@]2(C)C(=CC[C@@H]3[C@@H]2CC[C@]2(C)C(=O)CC[C@@H]32)C1 [drawing 92]
[1]
  G6PDH Inhibition relative to DHEA: ~ 2 ×

## C[C@]12CC[C@H](O)C[C@@H]1CC[C@@H]1[C@@H]2CC[C@]2(C)C(=O)CC[C@@H]12 [drawing 95]
[3]
  Anti-obesity Activity relative to DHEA: ~ 0.5 ×

## C[C@]12CCCC[C@@H]1CC[C@@H]1[C@@H]2CC[C@]2(C)C(=O)CC[C@@H]12 [drawing 96]
[3]
  Anti-obesity Activity relative to DHEA: ~ 0.5 ×

## C[C@H]1CC[C@@]2(C)C(=CC[C@@H]3[C@@H]2CC[C@]2(C)C(=O)CC[C@@H]32)C1 [drawing 97]
[3]
  Anti-obesity Activity relative to DHEA: ~ 3 ×

## C[C@H]1CC[C@@]2(C)C(=CC[C@@H]3[C@@H]2CC[C@]2(C)C(=O)[C@H](O)C[C@@H]32)C1 [drawing 98]
[3]
  Anti-obesity Activity relative to DHEA: ~ 0.8 ×

## C[C@H]1CC[C@@]2(C)C(=CC[C@@H]3[C@@H]2CC[C@]2(C)C(=O)[C@H](C)C[C@@H]32)C1 [drawing 99]
[3]
  Anti-obesity Activity relative to DHEA: ~ 1 ×

## C[C@]12CC[C@H](Cl)CC1=CC[C@@H]1[C@@H]2CC[C@]2(C)C(=O)CC[C@@H]12 [drawing 100]
[3]
  Anti-obesity Activity relative to DHEA: ~ 1 ×

## CC[C@H]1CC[C@@]2(C)C(=CC[C@@H]3[C@@H]2CC[C@]2(C)C(=O)CC[C@@H]32)C1 [drawing 101]
[3]
  Anti-obesity Activity relative to DHEA: ~ 0.5 ×

## C[C@H]1CC[C@@]2(C)C(=CC[C@@H]3[C@@H]2CC[C@]2(C)C(=O)CC[C@@H]32)C1 [drawing 102]
[4]
  Anti-diabetic Activity relative to DHEA: 3 ×

## C[C@]12CC[C@H](Cl)CC1=CC[C@@H]1[C@@H]2CC[C@]2(C)C(=O)CC[C@@H]12 [drawing 103]
[4]
  Anti-diabetic Activity relative to DHEA: 1 ×

## Androst-5-en-17-one [Compound 15, reference compound]
[1]; Conc. 0.1 μm
  Percent Inhibition (G6PDH): 26%
[1]; Conc. 1 μm
  Percent Inhibition (G6PDH): 40%
[1]; Conc. 10 μm
  Percent Inhibition (G6PDH): 46%
